Data taken from patent publication US11767305B2, “Advantageous benzofuran compositions for mental disorders or enhancement” (Tactogen Inc, priority 2020, dated 2023).

Tests used:
MAO-A = MAO-A (Homo sapiens (Human), UniProt P21397); assay: MAO-A inhibition assay (kynuramine); assay type: biochemical
Experimental: MAO-A and test compounds were preincubated at 37° C. for 15 minutes before substrate addition. Test compounds were assayed at 10 concentrations with the highest concentration either 30 or 10 μM and subsequent concentrations using a 0.33 dilution factor. The reaction was initiated by addition of kynuramine and incubated at 37° C. for 30 minutes. The reaction was terminated by addition of NaOH. The amount of 4-hydroquioline formed was determined through spectrofluorimetric readout with the emission detection at 380 nm and excitation wavelength 310 nm.

[1] = molecular target: Nicotinic Acetylcholine Receptor α4β2 (nAchRa4/b2) (Homo sapiens (Human), UniProt P17787+P43681); assay: Nicotinic acetylcholine receptor α4β2 ion channel blocking assay; assay type: cell-based
Experimental: Cell lines were expanded from freezer stocks according to standard procedures. Cells were seeded in a total volume of 20 μL into black-walled, clear-bottom, Poly-D-lysine coated 384-well microplates and incubated at 37° C. for the appropriate time prior to testing.
Assays were performed in 1×Dye Loading Buffer consisting of 1×Dye, and 2.5 mM freshly-prepared Probenecid when applicable.
Test compounds were assayed at 10 concentrations with the highest concentration either 30 or 10 μM and subsequent concentrations using a 0.33 dilution factor.
Prior to testing, cells were loaded with dye then incubated for 30-60 minutes at 37° C. For antagonist determination, cells were pre-incubated with sample. Dihydro-β-erythroidine was used as a positive control. Intermediate dilution of sample stocks was performed to generate 2-5×sample in assay buffer.
After dye loading, cells were moved from the incubator and 10-25 μL 2-5×sample was added to cells in the presence of EC80 agonist when appropriate. Cells were incubated for 30 minutes at room temperature in the dark to equilibrate plate temperature. Vehicle concentration was 1%.
Compound activity was measured on a FLIPRTetra(MDS) and analyzed using CBIS data analysis suite (ChemInnovation, CA). Percentage inhibition was calculated using the following formula: % Inhibition=100%×(1−(mean RLU of test sample−mean RLU of vehicle control)/(mean RLU of EC80 control−mean RLU of vehicle control)).

[2] = molecular target: human 5-HT transporter (hSERT) (Homo sapiens (Human), UniProt P31645); assay: Human serotonin transporter  assay ([3H]imipramine radioligand, CHO cells); assay type: binding
Experimental: Benzofuran derivatives were evaluated for inhibiting the human 5-HT transporter (hSERT) as expressed in CHO cells using an antagonist radioligand assay (Tatsumi, M. et al. (1999), Eur. J Pharmacol., 368: 277-283). […] Test compounds were assayed in three trials at […], and 0.94868 μM.

[3] = molecular target: T1, serotonin (5-HT) transporter (SERT) (Rattus norvegicus (Rat), UniProt P31652); assay: Rat synaptosome SERT [3H]5-HT release assay; settings: [3H]5-HT release via SERT EC50 (nM), 5 nM [3H]5-HT
[4] = molecular target: T1, serotonin (5-HT) transporter (SERT); assay: Rat synaptosome SERT [3H]5-HT uptake inhibition assay; settings: Inhibition of [3H]5-HT Uptake at SERT IC50 (nM), 5 nM [3H]5-HT
5-HT1BR = 5-HT1BR (Homo sapiens (Human), UniProt P28222); assay: 5-HT1BR cAMP secondary messenger agonist assay (HitHunter, CHO-K1); assay type: cell-based
Text: The 5-HT1BR cAMP secondary messenger agonist assay used a panel of CHO-K1 cell lines stably expressing non-tagged GPCRs that endogenously signal through cAMP. Hit Hunter® cAMP assays monitored the activation of a GPCR via Gi and Gs secondary messenger signaling in a homogenous, non-imaging assay format using DiscoverX Enzyme Fragment Complementation (EFC) with β-galactosidase as the functional endpoint.
The enzyme was split into two complementary portions: Enzyme Acceptor (EA) and Enzyme Donor (ED). Exogenously introduced ED fused to cAMP (ED-cAMP) competed with endogenously generated cAMP for binding to an anti-cAMP-specific antibody. Active β-galactosidase was formed by complementation of exogenous EA to any unbound ED-cAMP.
Cell lines were expanded from freezer stocks according to standard procedures. Cells were seeded in a total volume of 20 μL into white walled, 384-well microplates and incubated at 37° C. for the appropriate time prior to testing. cAMP modulation was determined using the DiscoverX HitHunter cAMP XS+ assay.
For agonist determination, cells were incubated with sample (in the presence of EC80 forskolin to induce response if measuring Gi secondary messenger signaling). Media was aspirated from cells and replaced with 15 μL 2:1 HBSS/10 mM Hepes:cAMP XS+ Ab reagent. Intermediate dilution of sample stocks was performed to generate 4×sample in assay buffer (optionally containing 4×EC80 forskolin). 5 μL of 4×sample was added to cells and incubated at 37° C. or room temperature for 30 or 60 minutes, as appropriate. Final assay vehicle concentration was 1%.

5-HT2A receptors = 5-HT2A receptors (Homo sapiens (Human), UniProt P28223); assay: 5-HT2A agonist and antagonist calcium assay (Calcium NWPLUS, FLIPR); assay type: cell-based
Experimental: The DiscoveRx Calcium NWPLUS Assay was used for detection of changes in intracellular calcium as signalled by an increase of dye fluorescence in cells expressing 5-HT2A receptors. Signal was measured on a fluorescent plate reader equipped with fluidic handling capable of detecting rapid changes in fluorescence upon compound stimulation.
To conduct the assay, cell lines were expanded from freezer stocks according to standard procedures. Cells (10,000 cells/well) were seeded in a total volume of 50 μL (200 cells/μL) into black-walled, clear-bottom, Poly-D-lysine coated 384-well microplates and incubated at 37-C for the appropriate time prior to testing. DMSO concentration for all readouts was ≤0.2%.
Assays were performed in 1×DyeLoading Buffer consisting of 1×Dye (DiscoverX, Calcium No WashPLUS kit, Catalog No. 90-0091), 1×Additive A and 2.5 mM Probenecid in HBSS/20 mM Hepes. Probenecid was prepared fresh. Cells were loaded with dye prior to testing. Media was aspirated from cells and replaced with 25 μL Dye Loading Buffer. Test compounds were assayed at 10 concentrations with the highest concentration either 30 or 10 μM and subsequent concentrations using a 0.33 dilution factor. Cells with testing sample were incubated for 45 minutes at 37° C. and then 20 minutes at room temperature. After dye loading, cells were removed from the incubator and 25 μL of 2×compound in HBSS/20 mM Hepes was added using a FLIPR Tetra (MDS). […]
Compound agonist activity was measured on a FLIPR Tetra. Calcium mobilization was monitored for 2 minutes with a 5 second baseline read. FLIPR read-Area under the curve was calculated for the two minute read. Compound activity was analyzed using CBIS data analysis suite (ChemInnovation, CA). Percentage activity was calculated as 100%×(mean RFU of test sample−mean RFU of vehicle control)/(mean MAX RFU control ligand −mean RFU of vehicle control). For antagonist mode assays, percentage inhibition was calculated as 100%×(1−(mean RFU of test sample−mean RFU of vehicle control)/(mean RFU of EC80 control−mean RFU of vehicle control)).

5-HT2B = 5-HT2B (Homo sapiens (Human), UniProt P41595); assay: 5-HT2B agonist and antagonist calcium assay (Calcium NWPLUS, FLIPR); assay type: cell-based
DAT = DAT (Homo sapiens (Human), UniProt Q01959); assay: hDAT release assay in CHO cells ([3H]dopamine); settings: EC50 DAT (Mean ± SEM, nM), CHO cells expressing hDAT
SERT = SERT (Homo sapiens (Human), UniProt P31645); assay: hSERT release assay in CHO cells ([3H]serotonin); settings: EC50 SERT (Mean ± SEM, nM), CHO cells expressing hSERT
[5] = Solubility assessment in FaSSIF V2 media; settings: room temp, scale up samples of racemic 5-MAPB salts
[6] = SERT IC50 (μM), 2 nM [3H]imipramine

MAO-A, sequence (P21397 whole entry, looked up, species assumed): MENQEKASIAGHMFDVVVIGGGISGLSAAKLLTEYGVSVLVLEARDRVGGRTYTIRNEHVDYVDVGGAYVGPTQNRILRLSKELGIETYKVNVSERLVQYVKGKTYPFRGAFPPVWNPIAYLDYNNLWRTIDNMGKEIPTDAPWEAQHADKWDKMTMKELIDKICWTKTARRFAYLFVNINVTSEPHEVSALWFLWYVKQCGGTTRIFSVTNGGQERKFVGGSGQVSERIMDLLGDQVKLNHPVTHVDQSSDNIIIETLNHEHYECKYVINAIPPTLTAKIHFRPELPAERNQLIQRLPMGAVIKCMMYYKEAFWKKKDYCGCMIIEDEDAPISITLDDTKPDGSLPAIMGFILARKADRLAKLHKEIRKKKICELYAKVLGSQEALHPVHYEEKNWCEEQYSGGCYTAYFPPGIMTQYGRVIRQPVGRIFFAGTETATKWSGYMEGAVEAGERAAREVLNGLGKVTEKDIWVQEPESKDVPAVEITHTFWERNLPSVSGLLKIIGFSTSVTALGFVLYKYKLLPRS
Nicotinic Acetylcholine Receptor α4β2 (nAchRa4/b2), sequence (P43681 29-627 limits assumed): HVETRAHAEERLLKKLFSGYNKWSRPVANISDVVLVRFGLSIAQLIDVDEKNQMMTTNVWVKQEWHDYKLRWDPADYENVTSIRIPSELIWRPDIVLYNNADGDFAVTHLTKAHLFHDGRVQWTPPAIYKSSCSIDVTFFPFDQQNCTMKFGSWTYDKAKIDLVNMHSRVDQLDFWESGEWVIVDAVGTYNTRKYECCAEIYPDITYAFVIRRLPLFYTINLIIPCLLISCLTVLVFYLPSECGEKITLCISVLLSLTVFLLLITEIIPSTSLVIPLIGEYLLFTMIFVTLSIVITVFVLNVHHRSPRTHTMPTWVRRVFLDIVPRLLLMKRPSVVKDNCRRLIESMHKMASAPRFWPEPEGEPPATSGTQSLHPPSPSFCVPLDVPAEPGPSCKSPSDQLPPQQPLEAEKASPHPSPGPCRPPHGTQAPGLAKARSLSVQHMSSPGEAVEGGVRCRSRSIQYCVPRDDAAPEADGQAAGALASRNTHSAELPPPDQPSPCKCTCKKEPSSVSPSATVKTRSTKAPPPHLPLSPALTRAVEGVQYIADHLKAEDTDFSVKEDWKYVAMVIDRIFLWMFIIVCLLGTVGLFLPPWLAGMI
Nicotinic Acetylcholine Receptor α4β2 (nAchRa4/b2), sequence (P17787 26-502 limits assumed): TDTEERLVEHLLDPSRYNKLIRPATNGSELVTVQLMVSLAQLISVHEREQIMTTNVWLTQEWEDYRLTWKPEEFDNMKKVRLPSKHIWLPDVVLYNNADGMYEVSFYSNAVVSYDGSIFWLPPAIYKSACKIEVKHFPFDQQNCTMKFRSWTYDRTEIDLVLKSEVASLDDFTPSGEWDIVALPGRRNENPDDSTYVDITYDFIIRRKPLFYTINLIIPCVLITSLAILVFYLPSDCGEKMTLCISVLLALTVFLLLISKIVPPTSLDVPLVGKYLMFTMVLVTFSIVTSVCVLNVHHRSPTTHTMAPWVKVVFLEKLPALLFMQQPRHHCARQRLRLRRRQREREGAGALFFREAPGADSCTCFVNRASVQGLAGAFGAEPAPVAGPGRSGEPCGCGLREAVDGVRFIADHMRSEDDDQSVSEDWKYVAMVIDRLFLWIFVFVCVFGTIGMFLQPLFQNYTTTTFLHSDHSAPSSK
5-HT2B, sequence (P41595 whole entry, looked up, species assumed): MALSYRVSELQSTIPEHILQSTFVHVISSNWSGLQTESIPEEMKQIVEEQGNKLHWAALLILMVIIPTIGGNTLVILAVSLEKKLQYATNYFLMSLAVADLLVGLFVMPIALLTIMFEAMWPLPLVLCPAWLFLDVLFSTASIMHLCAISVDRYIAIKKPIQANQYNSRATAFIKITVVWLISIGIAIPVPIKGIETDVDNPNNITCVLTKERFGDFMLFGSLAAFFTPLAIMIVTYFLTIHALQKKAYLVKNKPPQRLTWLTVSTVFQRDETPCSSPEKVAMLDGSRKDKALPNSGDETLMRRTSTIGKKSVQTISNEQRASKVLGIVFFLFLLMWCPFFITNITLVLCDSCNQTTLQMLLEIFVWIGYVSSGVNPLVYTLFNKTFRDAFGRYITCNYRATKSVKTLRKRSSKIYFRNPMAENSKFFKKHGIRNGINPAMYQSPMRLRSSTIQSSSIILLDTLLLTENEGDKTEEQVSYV

| Structure (SMILES) | IC50 (MAO-A) [nM] | IC50 [1] [µM] | IC50 ([2]; IC50 (appeared close to), lowest concentration too high for accurate estimate) [µM] | EC50 [3] [nM] | IC50 [4] [nM] | Hill Coef. (5-HT1BR) | EC50 (5-HT1BR; 5-HT1BR EC50 (μM)) [µM] | EC50 (5-HT1BR; 5HT1B Agonist (μM)) [µM] | EC50 (5-HT2A receptors) [nM] | IC50 (5-HT2A receptors) [µM] | IC50 (5-HT2B) [nM] | IC50 [2, 6] [µM] | EC50 (DAT) [nM] | EC50 (SERT) [nM] | Solubility [5] [mg/mL] |
| --- | --- | --- | --- | --- | --- | --- | --- | --- | --- | --- | --- | --- | --- | --- | --- |
| CC[C@@H](Cc1ccc2occc2c1)NC (stereo in doubt) [Compound S-5-MBPB, 1-(benzofuran-5-yl)-N-methylbutan-2-amine] | 2660 | 9.98 | ~0.0949 | 31.2 ± 14.3 | 124 ± 35.8 |  |  |  |  |  |  |  |  |  |  |
| CN[C@H](C)Cc1ccc2occc2c1 [Compound R-5-MAPB, (R)-1-(benzofuran-5-yl)-N-methylpropan-2-amine] | 3940 | 4.24 |  | 29.3 ± 3.7 | 150 ± 8.6 | 1.13 | 0.981 | 0.98 | 2400 | 5.34 | 360 | 2.7 | 1950 ± 401 | 184 ± 3 |  |
| CNC(C)Cc1ccc2occc2c1.Cl (stereo not drawn) [Pattern 1A, 5-MAPB hydrochloride] |  |  |  |  |  |  |  |  |  |  |  |  |  |  | >10 |
| CN[C@@H](C)Cc1ccc2occc2c1 [75% S-5-MAPB] |  |  |  |  |  |  |  |  |  |  |  |  | 632 ± 113 | 80 ± 7 |  |
| CN[C@@H](C)Cc1ccc2occc2c1 [Compound S-5-MAPB, (S)-1-(benzofuran-5-yl)-N-methylpropan-2-amine] | 1290 |  |  | 13 ± 1.2 | 60.4 ± 2.8 | 1.08 | 0.161 | 0.16 |  |  |  | 3.4 | 258 ± 99 | 67 ± 15 |  |
